This note sets out measurements from patent US11260053B2, “Bile acid recycling inhibitors and satiogens for treatment of diabetes, obesity, and inflammatory gastrointestinal conditions” (Satiogen Pharmaceuticals, Inc., priority 2010, dated 2022).

One assay relates to diabetic db/db mice. The assay can be described thus: Oral ASBTI with DPP-IV inhibitor versus subcutaneous exenatide, blood glucose (Example 9). The format is in vivo.
In assay [1] the test system is male db/db mice. The assay can be described thus: In vivo assay for reduction in blood glucose levels (Example 7A). Conditions: for reduction in plasma glucose from baseline: after 6 hours, oral. The protocol: Male db/db mice 6-7 weeks (approx 30 g) were fasted for 2 h. A combination of (−)-(3R,5R)-trans-3-butyl-3-ethyl-2,3,4,5-tetrahydro-7,8-dimethoxy-5-phenyl-1,4-benzothiazepine1,1-dioxide (Compound 100A) at doses of 0, 0.1, 1, 10, mg/kg in 10% of DMSO-water and 30 mg/kg sitagliptin (DPP-IV inhibitor) in a mixture of valine-pyrrolidine in water was administered orally to male db/db mice (n=7-10 per group). Blood sample (˜1 μl from tail for glucose level testing) was taken at t=−24 h, 0, 60, 180, 240, 300, 360 min and 24 h after administration.

Assay [2] relates to male db/db mice. The assay can be described thus: In vivo assay for reduction in blood glucose levels (Example 7B). Conditions: for reduction in plasma glucose from baseline: after 6 hours, oral, male db/db mice. The protocol:
Male db/db mice 8-9 weeks (approx 40 g) were fasted for 2 h. […] Blood sample (˜1 μl from tail for glucose level testing) was taken at t=−24 h, 0, 1, 3, 4, 5, 6 h and 24 h after administration.

The next assay relates to GLP-1. Nature of the assay: Plasma GLP-1 levels in normal rats after oral dosing (Example 8). The format is in vivo. On the procedure: 12-week-old male HSD rats were fasted for 16 h and given oral dose of 0, 3, 30, 100 mg/kg of the ASBTI 1-[4-[4-[(4R,5R)-3,3-dibutyl-7-(dimethylamino)-2,3,4,5-tetrahydro-4-hydroxy-1,1-dioxido-1-benzothiepin-5-yl]phenoxy]butyl]4-aza-1-azoniabicyclo[2.2.2]octane methane sulfonate (Synthesized by Nanosyn Inc., CA, USA) or metformin (Control, 0, 3, 30, 100, 300 mg/kg) in saline and a dose of 30 mg/kg sitaglipin in a mixture of valine-pyrrolidine in water (n=5 per group). Blood samples in volume of 0.6 ml for each time point were taken from the caudal vein with a heparinized capillary tube 0, 1, 3 and 5 h after the administration of compounds and plasma GLP-1 level were determined. Aprotinin and 10 μl of DPP-IV inhibitor per ml of blood were used for blood sample preservation during 10 min centrifugation and for storage at −70° C. or below. GLP-1 (Active pM) was tested by Millipore ELISA Kits (Millipore Corporation, 290 Concord Road, Billerica, Mass.).

Assay [3] deals with Sprague Dawley rats. To be noted: 500 mM sodium taurocholate gel, 3 mL per rectum, overnight-fasted rats, 6 hour period. The protocol:
Using a stainless steel dissolving vessel fitted with a propeller stirrer 1 gram of methyl cellulose is dissolved in 100 mL of purified water and stirred for 15 minutes. 5 syringes connected to gavage tubes are then each filled with 3 mL of the composition.
The sodium taurocholate rectal gel described above was rectally administered to 6 conscious overnight-fasted subjects (e.g., Sprague Dawley rats) and the control rectal gel without the sodium taurocholate was rectally administered to 5 conscious overnight-fasted subjects (e.g., Sprague Dawley rats). Each rat was then exposed to pre-weighed food and the cumulative consumption of the food was determined over a 6 hour period by weighing the food after 30 minutes, 60 minutes, 120 minutes, 240 minutes and 360 minutes.

The test system of assay [4] is Sprague Dawley rats. On the procedure: Using a stainless steel dissolving vessel fitted with a propeller stirrer 1 gram of methyl cellulose is dissolved in 100 mL of purified water and stirred for 15 minutes. 12 syringes connected to gavage tubes are then each filled with 3 mL of the composition.
A 4×4 Latin Square design is used to monitor the effect of the different concentration of taurocholate on the food uptake of overnight-fasted Sprague Dawley rats. Each concentration is tested in triplicate with four rats used per replicate.
The ED50 for inhibition of food intake is obtained by plotting the normalizing the dose response for the anorectic effect of taurocholate to the control data as a log of taurocholate dose vs the percentage of control cumulative intake (FIG. 7).

Another assay concerns obese diabetic humans. To be noted: rectal 0.66, 2.0, 6.66, 20.0 mmoles in 20 ml 1% carboxymethyl cellulose gel, after 100 mg sitagliptin. The protocol:
Studies were undertaken after an overnight fast following administration (8-10 hours prior to bile salt) of 100 mg sitagliptin, a DPP-4 inhibitor that protects GLP-1 from inactivation by proteolysis. […] The taurocholic acid was administered into the rectum by syringe in a total volume of 20 ml of 1% carboxymethyl cellulose gel. Each dose was administered on a different day with at least three days between doses.

Where two headings read alike, the source gives them in different places.

As for `CCCC[C@]1(CC)CS(=O)(=O)c2cc(OC)c(OC)cc2[C@@H](c2ccccc2)N1` (relative stereo) [Compound 100A, (−)-(3R,5R)-trans-3-butyl-3-ethyl-2,3,4,5-tetrahydro-7,8-dimethoxy-5-phenyl-1,4-benzothiazepine1,1-dioxide], in the assay with diabetic db/db mice (3 hours post-dose, oral 10 mg/kg in combination with 30 mg/kg sitagliptin), the “reduction of plasma glucose levels” value stood at 35%. Besides, in the assay on male db/db mice [1] (24 h after administration, FIG. 9), the “change in body weight” value is on record as “Weight loss”. In the assay with male db/db mice [1] (ASBTI alone, male db/db mice, FIG. 1), the plasma glucose concentrations result is “lowers plasma glucose concentrations”. Also, the “reduction in plasma glucose from baseline” value (“reduction in plasma glucose” for short) in the assay on male db/db mice [1] (dose 01 mg/kg (so in the source) with 30 mg/kg sitagliptin, male db/db mice) is 5.6%; with male db/db mice [1] (dose 1 mg/kg with 30 mg/kg sitagliptin, male db/db mice) it was 15%; with male db/db mice [1] (dose 10 mg/kg with 30 mg/kg sitagliptin, male db/db mice), 42.3%. Further, the “elevated blood glucose levels compared to control mice treated with sitagliptin alone or vehicle” value with male db/db mice [1] (single oral administration in combination with 30 mg/kg sitagliptin, FIG. 1) is “dose-dependent reduction”.

In the case of `CCCCC1(CCCC)CS(=O)(=O)c2ccc(N(C)C)cc2[C@@H](c2ccc(OCCCC[N+]34CCN(CC3)CC4)cc2)[C@H]1O.CS(=O)(=O)[O-]` [Compound 100B, 1-[4-[4-[(4R,5R)-3,3-dibutyl-7-(dimethylamino)-2,3,4,5-tetrahydro-4-hydroxy-1,1-dioxido-1-benzothiepin-5-yl]phenoxy]butyl]4-aza-1-azoniabicyclo[2.2.2]octane methane sulfonate salt], the “change in body weight” value in the assay on male db/db mice [2] (24 h after administration, in combination with sitagliptin, FIG. 8) was “Weight loss”. Further, the plasma glucose levels entry with male db/db mice [2] (ASBTI alone, db/db mice, FIG. 4) was “lowers plasma glucose levels in dose dependent manner”. The “reduction in plasma glucose” value in the assay with male db/db mice [2] (dose 3 mg/kg with 30 mg/kg sitagliptin) was 5.6%; in the assay on male db/db mice [2] (dose 30 mg/kg with 30 mg/kg sitagliptin), 15%; in the assay with male db/db mice [2] (dose 100 mg/kg with 30 mg/kg sitagliptin), 42.3%. Besides, the “elevated blood glucose levels compared to control mice treated with sitagliptin alone or vehicle” value in the assay with male db/db mice [2] (single oral administration in combination with 30 mg/kg sitagliptin, FIG. 2) was “dose-dependent reduction”. Moreover, the “blood glucose levels compared with exenatide” value with diabetic db/db mice (3 hours after dosing, oral, in combination with 30 mg/kg sitagliptin, FIG. 10) was “reduces blood glucose levels more than a single subcutaneous injection of 0.02 mg/kg exenatide”. Besides, the “plasma GLP-1 levels” value with GLP-1 (ASBTI alone, oral 0, 3, 30, 100 mg/kg, FIG. 6, FIG. 7) is “elevation in GLP-1 levels in a dose-dependent manner”; with GLP-1 (ASBTI in combination with 30 mg/kg sitagliptin, oral, FIG. 6, FIG. 7), “elevation in GLP-1 levels in a dose-dependent manner”.

`CN(C)C(=N)N=C(N)N` [metformin, reference compound]: the “plasma GLP-1 levels” value in the assay with GLP-1 (metformin in combination with 30 mg/kg sitagliptin, oral, FIG. 5) is “elevation in GLP-1 levels”.

On to `N[C@@H](CC(=O)N1CCn2c(nnc2C(F)(F)F)C1)Cc1cc(F)c(F)cc1F` [sitagliptin, (3R)-3-amino-1-[9-(trifluoromethyl)-1,4,7,8-tetrazabicyclo[4.3.0]nona-6,8-dien-4-yl]-4-(2,4,5-trifluorophenyl)butan-1-one, reference compound], for which the “reduction in plasma glucose” value in the assay with male db/db mice [2] (dose 0 mg/kg of ASBTI with 30 mg/kg sitagliptin) was found to be 5.5%; with male db/db mice [1] (dose 0 mg/kg of ASBTI with 30 mg/kg sitagliptin, male db/db mice), 5.5%.

With `C[C@H](CCC(=O)NCCS(=O)(=O)O)[C@H]1CC[C@H]2[C@@H]3[C@H](O)C[C@@H]4C[C@H](O)CC[C@]4(C)[C@H]3C[C@H](O)[C@]12C` [taurocholate, taurocholic acid], the “cumulative food intake compared to gel alone” value in the assay on Sprague Dawley rats [3] is “reduced”. Further, the cumulative food intake result in the assay with Sprague Dawley rats [4] (50, 150, 500 mM taurocholate gels, 3 mL per rectum, overnight-fasted rats) is given as “dose dependently related to the quantity of taurocholate administered”. The “ED50 for inhibition of food intake” value in the assay with Sprague Dawley rats [4] (24 hour intake) was 7.2 mmol/rat; in the assay on Sprague Dawley rats [4] (at 1 hour) it was 1.6 mmol/rat; in the assay with Sprague Dawley rats [4] (at 1 hour, 3 mL doses per rectum), 528 mM. The “time for which differences in food uptake are maintained” value in the assay on Sprague Dawley rats [4] (rectal taurocholate gels, rats) is given as “at least 24 hours”. The “circulating GLP-1 levels” value with obese diabetic humans is given as “increase”. Further, in the assay with obese diabetic humans, the “circulating PYY levels” value is reported as “increase”.
